These results are taken from patent publication EP0481744B1, “Piperazine derivatives” (JOHN WYETH & BROTHER LIMITED, priority 1990, dated 1992).

In experiment [1] the target is T1, 5HT1A receptor (Rattus norvegicus, UniProt P19327).
T1 sequence (P19327 1-422): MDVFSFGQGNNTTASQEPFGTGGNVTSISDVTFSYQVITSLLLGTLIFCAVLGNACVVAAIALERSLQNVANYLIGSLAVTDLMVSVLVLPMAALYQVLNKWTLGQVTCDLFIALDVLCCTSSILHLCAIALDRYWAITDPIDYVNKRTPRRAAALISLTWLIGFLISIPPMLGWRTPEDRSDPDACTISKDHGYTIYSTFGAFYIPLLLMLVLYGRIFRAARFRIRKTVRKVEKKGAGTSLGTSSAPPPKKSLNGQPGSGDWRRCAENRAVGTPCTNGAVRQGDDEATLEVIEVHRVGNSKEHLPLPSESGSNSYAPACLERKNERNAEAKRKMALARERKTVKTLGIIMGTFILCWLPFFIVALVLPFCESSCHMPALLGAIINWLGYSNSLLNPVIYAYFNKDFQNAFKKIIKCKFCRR
Put plainly: 5-HT1A receptor binding activity in rat hippocampal membrane homogenate. Details: rat hippocampal membrane homogenate; from tissue; host or cells: rat hippocampus (membrane homogenate). As to the method:
The compounds of the invention were tested for 5-HT1A receptor binding activity in rat hippocampal membrane homogenate by the method of B S Alexander and M D Wood, J Pharm Pharmacol, 1988, 40, 888-891.

In experiment [2] the test system is mouse exploratory activity. The experiment can be described thus: Potential anxiolytic activity: mouse exploratory activity in a two-compartment light/dark box. The class given is in vivo. Conditions: s.c. As to the method: The compounds were also tested for potential anxiolytic activity by a test procedure measuring mouse exploratory activity in a two-compartment light/dark box based upon the procedure of B Costall et al, Neuropharmacology, 1987, 26, 195-200 and J.N. Crawley et al, Pharmac. Biochem. Behav. 1980, 13, 167-170. The results are given below

The target of experiment [3] is T1, 5HT1A receptor. Put plainly: 5HT1A receptor antagonism: antagonism of 8-OH DPAT syndrome in the rat. The experiment is classed as in vivo. Details: (8-OH DPAT) syndrome in the rat; from tissue; host or cells: whole animal (rat), in vivo. Conditions: antagonism of 8-hydroxy-2-(di-n-propylamino)-tetralin (8-OH DPAT) syndrome in the rat; s.c. How it is done:
The compounds were also tested for 5HT1A receptor antagonism activity in a test involving the antagonism of 8-hydroxy-2-(di-n-propylamino)-tetralin (8-OH DPAT) syndrome in the rat. The results are given below

For `COc1ccccc1N1CCN(CCC(C(=O)N2CCCCCC2)c2ccccc2)CC1` (single isomer, unassigned) [Compound C, 2,3,4,5,6,7-Hexahydro-1-⁅4-[1-[4-(2-methoxyphenyl)-piperazinyl]]-2-phenylbutyryl⁆-1H-azepine], the IC50 in experiment [1] is 1 nM.

As for `COc1ccccc1N1CCN(CCC(C(=O)N2CCCCCC2)c2ccccc2)CC1` (stereo not drawn) [Compound A, 2,3,4,5,6,7-hexahydro-1-{4-[1-[4-(2-methoxyphenyl)-piperazinyl]]-2-phenylbutyryl}-1H-azepine], the MED in experiment [2] and in experiment [3] was 0.03 mg/kg; s.c each time. The same compound had an IC50 in experiment [1] of 3 nM.

Turning to `COc1ccccc1N1CCN(CC(C(=O)N2CCCCCC2)c2ccccc2)CC1` (stereo not drawn) [Compound B, 2,3,4,5,6,7-hexahydro-1-⁅3-⁅1-[4-(2-methoxyphenyl)piperazinyl]⁆-2-phenylpropionyl⁆-1H-azepine, reference compound], the MED in experiment [2] is given as 1 mg/kg; s.c; in experiment [3] it was 0.3 mg/kg; s.c.
